Reference: US20220313650A1, “METHODS FOR TREATING NEURODEVELOPMENTAL DISORDERS” (The Broad Institute, Inc., priority 2019, published 2022)
Entries after “also recorded” stand apart in the source; their conditions may differ.

Tests used:
[1] = system: wild type mice; assay: EEG/EMG sleep recording, WT mice; format: in vivo; details: LY379268 5 mg/kg i.p., 3 h recordings, 5 mg/kg
Text: For EEG recording studies, 8- to 12-week-old male mice with C57Bl/6J background, Ptchd1Y/− (knockout) and Ptchd1Y/+ (wild type) were deeply anesthetized with a 1% to 1.5% isoflurane. A screw electroencephalography (EEG) electrode (catalog no. 8403; Pinnacle Technology, Inc.) was implanted into the skull above the primary somatosensory cortex, S1 (AP: −1.8 and ML: +3.0 mm) using a stereotaxic device (David Kopf Instruments). A reference electrode was screwed in the occipital region of the skull and stainless steel electromyography (EMG) electrodes were placed in the nuchal muscle. All the electrodes were connected to a head-mount (catalog no. 8201-SS; Pinnacle Technology) and secured by using dental cement. The mice were allowed to recover for at least 2 weeks. Spontaneous EEG/EMG signals were recorded for 12 hours with a differential amplifier (8200-K1-SL amplifier; Pinnacle Technology). […] Data were analyzed offline using Matlab (R2016a; MathWorks). The spectral power was calculated in 0.5-Hz bins (fast Fourier transform with Hamming window) with artifact-free 4-hour EEG signals from each animal. […]
EEG and EMG from the frontal and parietal cortex and from the nuchal muscular complex were simultaneously recorded.
Surface electroencephalography (EEG) and electromyography (EMG) from the frontal and parietal cortex and from the nuchal muscular complex were simultaneously recorded.

[2] = system: Ptchd1 KO mice; assay: Auditory GO/NO GO noise filtering test, Ptchd1 KO mice; format: in vivo; details: LY379268 5 mg/kg i.p.
Experimental: Behavioral Training and Testing was conducted. In brief, behavioral training and testing took place in grid-floor mounted, custom-built enclosures made of acrylic plastic (dimensions in cm: length: 15.2; width: 12.7; height: 24). All enclosures contained custom-designed operant ports, each of which was equipped with an IR LED/IR phototransistor pair (Digikey, Thief River Falls, Minn.) for nose-poke detection. Trial initiation was achieved through an initiation port mounted on the grid floor 6 cm away from the ‘response ports’ located at the front of the chamber. A pair of electrostatic speakers (Tucker Davis Technologies) producing the auditory stimuli were placed outside of the training apparatus and sound stimuli were conveyed via cylindrical tubes to apertures located at either side of the initiation port, allowing delivery of stereotypical stimuli across trials. All stimuli across tasks were generated by a TDT Rx8 sound system (Tucker-Davis Technologies, Alachua, Fla.). Sound stimuli were recorded and assessed for intensity using a prepolarized icp array microphone (PCB Piezotronics, Depew, N.Y.) after which frequency production was equalized using a software-based calibration via SigCalRP (Tucker-Davis Technologies, Alachua Fla.). […]
The sequence of “NO GO” stimuli followed a pre-determined pseudorandomized sequence which was shifted across testing sessions. […]

For `N[C@@]1(C(=O)O)COC2C(C(=O)O)C21` (stereo in doubt) [LY379268, (1R,4R,5S,6R)-4-Amino-2-oxabicyclo[3.1.0] hexane-4,6-dicarboxylic acid], the “length of NREM sleep bout” value [1] was “increased non-REM sleep bout length; also recorded: increased the length of NREM sleep bout” and the “percentage of correct responses, auditory stimuli embedded with noise” value [2] was “fully rescued noise filtering deficits in the Ptchd1 KO to control level; also recorded: rescued to control levels”.
